This is an account of results in PMC3927067 (Journal of Computer-Aided Molecular Design, 2014).

Several values for one entry are separate records, joined by “and”; a condition that tells them apart may be missing. Equal values may be shown once. Read-outs that look alike come from different tables or passages of the source. Bounds are passed on as bounds.

The target of one data set is T1, hOX1R (Homo sapiens, UniProt O43613).
T1 sequence (O43613 1-425): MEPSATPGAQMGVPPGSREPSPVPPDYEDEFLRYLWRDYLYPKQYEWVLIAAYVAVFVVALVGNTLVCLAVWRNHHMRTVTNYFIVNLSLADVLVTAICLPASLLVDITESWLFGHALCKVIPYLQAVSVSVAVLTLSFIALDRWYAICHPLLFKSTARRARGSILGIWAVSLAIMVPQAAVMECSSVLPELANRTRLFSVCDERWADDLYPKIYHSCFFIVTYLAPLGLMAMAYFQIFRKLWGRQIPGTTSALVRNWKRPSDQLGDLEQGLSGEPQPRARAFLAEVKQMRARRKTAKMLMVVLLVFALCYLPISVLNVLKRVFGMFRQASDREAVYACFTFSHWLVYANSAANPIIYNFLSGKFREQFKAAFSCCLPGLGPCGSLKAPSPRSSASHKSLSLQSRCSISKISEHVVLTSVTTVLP
Nature of the data set: Orexin 1 receptor binding assay.

The target in the next data set is T2, hOX2R (Homo sapiens, UniProt O43614).
T2 sequence (O43614 1-444): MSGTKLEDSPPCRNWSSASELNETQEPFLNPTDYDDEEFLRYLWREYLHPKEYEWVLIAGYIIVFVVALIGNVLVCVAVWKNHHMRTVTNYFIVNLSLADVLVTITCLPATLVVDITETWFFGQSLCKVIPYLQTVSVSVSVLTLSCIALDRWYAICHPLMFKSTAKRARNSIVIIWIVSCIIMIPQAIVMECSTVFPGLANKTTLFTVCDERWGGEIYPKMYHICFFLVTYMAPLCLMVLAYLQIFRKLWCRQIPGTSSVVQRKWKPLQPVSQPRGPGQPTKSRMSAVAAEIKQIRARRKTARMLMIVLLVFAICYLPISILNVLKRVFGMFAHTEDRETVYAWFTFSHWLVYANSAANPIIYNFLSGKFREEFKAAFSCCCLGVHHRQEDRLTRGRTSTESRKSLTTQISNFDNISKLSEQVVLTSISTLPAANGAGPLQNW
As to the kind of experiment: Orexin 2 receptor binding assay.

The conditions of data set [1]: cited from earlier work.
Details of data set [2]: method as in PMID 20565075. The conditions noted are these: cited from earlier work.
Data set [3] in a line: Brain/plasma ratio, iv infusion study. The conditions noted are these: rat.
The next data set has as its system preclinical species. Nature of the data set: In vivo sleep promotion.
A short description of data set [4]: NMR solution conformation (NOE). Type of data set: physicochemical. Conditions: CD3OD at −40 °C. The text has this:
Although the molecular and quantum mechanical methods were in agreement with one another, we sought additional experimental methods to either support or refute our initial computational findings. We first determined the unbound, small-molecule crystal structure. The RMSD between the computationally derived conformation depicted in Fig. 1 and the X-ray structure was 0.75 Å (non-hydrogen atoms). Additionally, no differences between the geometries of the nitrogen atoms of the seven-membered ring nor the amide bond were observed between the theoretically and experimentally derived conformations. Even though there was no computed difference between the conformations (Table 1) when implicit solvent was invoked, we sought to experimentally confirm that the solution state conformation was consistent with the aforementioned theoretical and crystal structure experiments. There was again excellent agreement from NMR spectroscopy applied to compound 1, with NOE evidence for the F2F interaction in the major rotamer. In fact, two F2F rotamers in the ensemble accounted for 82 % of the total solution conformation (CD3OD at −40 °C), each with a motif similar to that found by computational analysis and X-ray structure.

Setting [5] is: mean of replicates, read-out: OX1R Ki.
Setting [6] is: supplement, individual replicates, Ki and nM taken from Table 3, read-out: OX1R individual replicate.
The mark [7] stands for this setting: supplement, unlabelled mean below the replicates, Ki and nM taken from b8/Table 3, read-out: OX1R mean of replicates.
The mark [8] stands for this setting: mean of replicates, read-out: OX2R Ki.
The mark [9] stands for this setting: supplement, individual replicates, Ki and nM taken from Table 3, read-out: OX2R individual replicate.
The mark [10] stands for this setting: supplement, unlabelled mean below the replicates, Ki and nM taken from b8/Table 3, read-out: OX2R mean of replicates.

On to `O=C(c1cc(Cl)ccc1-n1nccn1)N1CC2CC(C1)N(c1ncc3cc(F)ccc3n1)C2` (stereo not drawn) [Compound 4], for which the Ki was 0.4 nM at hOX1R (setting [5]); 0.43 nM and 0.42 nM at hOX1R (setting [6]); 0.425 nM at hOX1R (setting [7]); 0.6 nM at hOX2R (setting [8]); 0.66 nM and 0.57 nM at hOX2R (setting [9]); 0.615 nM at hOX2R (setting [10]).

With `Cc1ccc(-n2nccn2)c(C(=O)N2CC3CC2CCN3c2ncc3cc(F)ccc3n2)c1` (stereo not drawn) [Compound 5], the “times less active than compound 4” value on hOX1R (binding, relative to compound 4, receptor not specified) is on record as > 1,000 times. The Ki is greater than 1700 nM on hOX1R (setting [5]); 2740 nM at hOX2R (setting [8]); 2800 nM and 2280 nM and 3150 nM on hOX2R (setting [9]); 2740 nM at hOX2R (setting [10]).

As for `C[C@@H]1CCN(c2ncc3cc(F)ccc3n2)CCN1C(=O)c1cc(Cl)ccc1-n1nccn1` [Compound 6], the Ki at hOX1R (setting [5]) was 0.6 nM; on hOX1R (setting [6]), 0.9 nM and 0.31 nM; at hOX1R (setting [7]) it was 0.605 nM; on hOX2R (setting [8]), 0.2 nM; on hOX2R (setting [9]), 0.19 nM and 0.11 nM; at hOX2R (setting [10]), 0.15 nM. Moreover, the metabolic liability result in data set [1] is “metabolic liability”. The in vivo activity entry in data set [2] was “excellent in vivo activity”.

The term Kp denotes the ratio of the level in a tissue or fluid to that in plasma or blood. As for `Cc1ccc(-n2nccn2)c(C(=O)N2CCN(c3nc4cc(Cl)ccc4o3)CC[C@H]2C)c1` [Compound 7, Suvorexant], in data set [3] (brain and plasma, iv), the Kp lay in the range of 0.6 to 1.2. The CNS penetration entry in data set [3] (iv infusion study) was “CNS penetrant”. Moreover, the “sleep promotion in vivo” value in the data set with preclinical species is “promote sleep in preclinical species in a dose dependent fashion”. The toxicology profile entry in “Toxicology profile” is reported as “favorable toxicology profile”. In addition, the metabolic issues entry in data set [1] (benzoxazole replacing quinazoline ring) is “devoid of the metabolic issues”.

With `Cc1ccc(-n2nccn2)c(C(=O)N2CCCN(c3ncc4ccccc4n3)CC2)c1` [Compound 1], the Ki on hOX1R (setting [5]) was 1.2 nM; at hOX1R (setting [6]) it was 2.2 nM and 0.71 nM and 0.58 nM and 1.3 nM and 0.94 nM and 0.62 nM and 0.54 nM and 2.4 nM and 1.4 nM; on hOX1R (setting [7]) it was 1.2 nM; at hOX2R (setting [8]), 0.8 nM; at hOX2R (setting [9]), 0.773 nM and 0.86 nM and 1.01 nM and 0.775 nM and 0.811 nM and 0.65 nM and 0.64 nM and 0.61 nM and 0.57 nM and 0.606 nM and 0.41 nM and 0.72 nM and 0.754 nM and 0.866 nM and 0.905 nM and 0.731 nM and 1.31 nM and 0.954 nM and 0.71 nM. Further, in data set [4], the “share of two F2F rotamers in total solution conformation” value was 82%.
